From patent US9936701B2, “Herbicidal compounds” (Syngenta Participations AG, priority 2013, dated 2018)

Legend:
[1] = test system: a variety of test species; experiment: Post-emergence herbicidal activity (glasshouse, sprayed after 8 days cultivation, evaluated after 13 days); type: in vivo; parameters: key: 5=total damage to plant; 0=no damage to plant; conditions: rate 1000 g/Ha, scale 0-5
Protocol: (§1) Seeds of a variety of test species were sown in standard soil in pots. After 8 days cultivation (post-emergence) under controlled conditions in a glasshouse (at 24/16° C., day/night; 14 hours light; 65% humidity), the plants were sprayed with an aqueous spray solution derived from the formulation of the technical active ingredient in acetone/water (50:50) solution containing 0.5% Tween 20 (polyoxyethelyene sorbitan monolaurate, CAS RN 9005-64-5). The test plants were then grown in a glasshouse under controlled conditions (at 24/16° C., day/night; 14 hours light; 65% humidity) and watered twice daily. After 13 days, the test was evaluated (5=total damage to plant; 0=no damage to plant).

[2] = test system: a variety of test species; experiment: Pre-emergence herbicidal activity (glasshouse, sprayed one day after sowing, evaluated after 13 days); type: in vivo; parameters: key: 5=total damage to plant; 0=no damage to plant; conditions: application pre-emergence, rate 1000 g/Ha, scale 0-5
Protocol: as §1, with “After” for “After 8 days”, “for one day (pre-emergence)” for “(post-emergence)”

Row | SMILES | ABUTH (Abutilon theophrasti) damage score, application post-emergence [1] | ALOMY (Alopecurus myosuroides) damage score, application post-emergence [1] | AMARE (Amaranthus retroflexus) damage score, application post-emergence [1] | ECHCG (Echinochloa crus-galli) damage score, application post-emergence [1] | SETFA (Setaria faberi) damage score, application post-emergence [1] | ZEAMX (Zea mays) damage score, application post-emergence [1] | Pre-emergence herbicidal damage score, ABUTH [2] | Pre-emergence herbicidal damage score, ALOMY [2] | Pre-emergence herbicidal damage score, AMARE [2] | Pre-emergence herbicidal damage score, ECHCG [2] | Pre-emergence herbicidal damage score, SETFA [2] | Pre-emergence herbicidal damage score, ZEAMX [2]
1 | COc1ccc(OC(=O)OC2C(C)=C(Cl)C(=O)N2c2cc(C(C)(C)C)on2)cc1 (stereo not drawn) [A86] | 2 | 3 | 5 | 2 | 3 | 0 | 3 | 3 | 5 | 2 | 2 | 1
2 | COc1ccccc1OC(=O)OC1C(C)=C(Cl)C(=O)N1c1cc(C(C)(C)C)on1 (stereo not drawn) [A87] | 2 | 2 | 4 | 3 | 2 | 0 | 2 | 2 | 3 | 1 | 1 | 0
3 | CC1=C(Cl)C(=O)N(c2cc(C(C)(C)C)on2)C1OC(=O)OCC(C)(C)C (stereo not drawn) [A88] | 5 | 5 | 5 | 5 | 5 | 5 | 5 | 4 | 5 | 5 | 5 | 3
4 | CC1=C(Cl)C(=O)N(c2cc(C(C)(C)C)on2)C1OC(=O)c1ccc(C(F)(F)F)nc1 (stereo not drawn) [A90] | 4 | 4 | 5 | 2 | 3 | 1 | 4 | 2 | 5 | 1 | 2 | 1
5 | CC1=C(Cl)C(=O)N(c2cc(C(C)(C)C)on2)C1OC(=O)c1sccc1Cl (stereo not drawn) [A91] | 2 | 2 | 5 | 1 | 1 | 0 | 1 | 2 | 4 | 0 | 0 | 0
6 | CC1=C(Cl)C(=O)N(c2cc(C(C)(C)C)on2)C1OC(=O)c1ccno1 (stereo not drawn) [A92] | 5 | 5 | 5 | 5 | 5 | 1 | 5 | 4 | 5 | 5 | 4 | 3
7 | CCC(=O)OC1C(C)=C(Cl)C(=O)N1c1cc(C(C)(C)C)on1 (stereo not drawn) [A93] | 5 | 5 | 5 | 5 | 5 | 4 | 5 | 4 | 5 | 4 | 5 | 3
8 | CCOC(=O)OC1C(C)=C(Cl)C(=O)N1c1noc(C(C)(C)C)c1C#N (stereo not drawn) [A96] | 5 | 5 | 5 | 5 | 5 | 5 | 5 | 4 | 5 | 5 | 5 | 3
9 | CC1=C(Cl)C(=O)N(c2noc(C(C)(C)C)c2C#N)C1Cl (stereo not drawn) [A97, 5-tert-butyl-3-(2A-dichloro-3-methyl-5-oxo-2H-pyrrol-1-yl)isoxazole-4-carbonitrile] | 5 | 5 | 5 | 5 | 5 | 3 | 5 | 4 | 5 | 4 | 5 | 3
10 | CC1=C(Cl)C(=O)N(c2noc(C(C)(C)C)c2C#N)C1OS(C)(=O)=O (stereo not drawn) [A98] | 5 | 5 | 5 | 5 | 5 | 4 | 5 | 3 | 5 | 5 | 5 | 3
11 | CCC(=O)OC1C(C)=C(Cl)C(=O)N1c1cc(C(C)(CC)CC#N)on1 (stereo not drawn) [A99] | 5 | 5 | 5 | 5 | 5 | 5 | 5 | 4 | 5 | 5 | 5 | 3
12 | CC1=C(Cl)C(=O)N(c2noc(C(C)(C)C)c2C#N)C1 [A102] | 5 | 5 | 5 | 5 | 5 | 4 | 5 | 4 | 5 | 4 | 5 | 3
13 | COC1=C(Cl)C(=O)N(c2cc(C(C)(C)C)on2)C1O (stereo not drawn) [B1] | 5 | 5 | 5 | 5 | 5 | 5 | 5 | 4 | 5 | 5 | 3 | 4
